Values of other authors, collected in patent publication US7998474B2, “Methods for treating an inflammatory disease of the bowel” (Rowett Research Institute, priority 2001, dated 2011).

Test system: Clostridium perfringens serotype A
Conditions: mouse, in vivo; cited from earlier work

## Bacteroides thetaiotaomicron [BT]
  Resistance of ex-germ free mice to infection by Clostridium perfringens serotype A: did not however increase the resistance
